Data published in US9328083B2, “2-aminated methylene or 2-esterified methylene tanshinone derivatives, and preparation method and application thereof” (HANGZHOU BENSHENG PHARMACEUTICAL CO., LTD., priority 2011, dated 2016).
Values after ≈ are worked out from the molar mass of the structure shown.

How the values were obtained:
[1] = system: H9 (acute lymphoblastic leukemia, ALL); test: MTT growth inhibition of leukemia cells, 72 h; assay type: cell-based, human; details: Homo sapiens, H9, 72 h; for IC50: read-out: IC50; for IC90: read-out: IC90
Method in brief: (§1)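 6000 cells/well, RPMI-1640 + 10% FBS; compounds added day 2 (DMSO stock 10 mg/mL, diluted in medium); 72 h, 37 °C, 5% CO2; MTT read-out of viable cells.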

[2] = system: Jurkat (acute lymphoblastic leukemia, ALL); test: MTT growth inhibition of leukemia cells, 72 h; assay type: cell-based, human; details: Homo sapiens, 72 h; for IC50: read-out: IC50; for IC90: read-out: IC90
Method in brief: as §1

[3] = system: K562/adr (drug-resistant, chronic myeloid leukemia, CML); test: MTT growth inhibition of leukemia cells, 72 h; assay type: cell-based, human; details: Homo sapiens, K562/Adr; for IC50: read-out: IC50; for IC90: read-out: IC90
Method in brief: as §1

[4] = system: Kasumi-1 (acute myeloid leukemia M2 type, AML-M2); test: MTT growth inhibition of leukemia cells, 72 h; assay type: cell-based, human; details: Homo sapiens, Kasumi-1, 72 h; for IC50: read-out: IC50; for IC90: read-out: IC90
Method in brief: as §1

[5] = system: NB4 (acute promyelocytic leukemia, AML); test: MTT growth inhibition of leukemia cells, 72 h; assay type: cell-based, human; details: Homo sapiens, NB4, 72 h; for IC50: read-out: IC50; for IC90: read-out: IC90
Method in brief: as §1

[6] = system: RPMI8226 (multiple myeloma); test: MTT growth inhibition of multiple myeloma cells, 72 h; assay type: cell-based, human; details: Homo sapiens, RPMI 8226, 72 h; for IC50: read-out: IC50; for IC90: read-out: IC90
Method in brief: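 Viability read by MTT after 72 h at 37° C, 5% CO2: compounds from a 10 mg/mL DMSO stock were diluted in medium and added at several concentrations to 6000 RPMI8226 cells per well in 1640 medium plus 10% FBS.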

A549 (human lung cancer) = test: MTT growth inhibition of human solid tumor cells, 72 h; assay type: cell-based; details: Homo sapiens, A549, 72 h; for IC50: read-out: IC50; for IC90: read-out: IC90
Method in brief: (§2)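 Dosing: several concentrations of each derivative, prepared by medium dilution of a DMSO stock (10 mg/mL). Cells plated at 4000/well, 24 h prior. Viability determined at end.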

[7] = system: Becap37 (human breast cancer cell); test: as above; assay type: cell-based; details: Homo sapiens, Becap-37, 72 h; for IC50: read-out: IC50; for IC90: read-out: IC90
Method in brief: as §2

[8] = system: CNE (nasopharyngeal carcinoma cell); test: as above; assay type: cell-based; details: Homo sapiens; for IC50: read-out: IC50; for IC90: read-out: IC90
Method in brief: as §2

[9] = system: CaES-17 (esophageal cancer cell); test: as above; assay type: cell-based; details: Homo sapiens, CaEs17, CaEs-17, 72 h; for IC50: read-out: IC50; for IC90: read-out: IC90
Method in brief: as §2

[10] = system: Hela (human cervical cancer cell); test: as above; assay type: cell-based; details: Homo sapiens, HeLa, 72 h; for IC50: read-out: IC50; for IC90: read-out: IC90
Method in brief: as §2

[11] = system: Hep G2 (human liver cancer cell); test: as above; assay type: cell-based; details: Homo sapiens, HepG2, Hep G2, 72 h; for IC50: read-out: IC50; for IC90: read-out: IC90
Method in brief: as §2

[12] = system: Hep-2 (laryngeal carcinoma); test: as above; assay type: cell-based; details: Homo sapiens, HEp-2, 72 h; for IC50: read-out: IC50; for IC90: read-out: IC90
Method in brief: as §2

MG63 (osteosarcoma) = test: as above; assay type: cell-based; details: Homo sapiens, MG-63, 72 h; for IC50: read-out: IC50; for IC90: read-out: IC90
Method in brief: as §2

[13] = system: MGC 803 (human gastric cancer cell); test: as above; assay type: cell-based; details: Homo sapiens, MGC-803, 72 h; for IC50: read-out: IC50; for IC90: read-out: IC90
Method in brief: as §2

[14] = system: PANC-1 (pancreatic cancer); test: as above; assay type: cell-based; details: Homo sapiens, PANC-1, 72 h; for IC50: read-out: IC50; for IC90: read-out: IC90
Method in brief: as §2

PC-3 (prostate cancer) = test: as above; assay type: cell-based; details: Homo sapiens, PC-3, 72 h; for IC50: read-out: IC50; for IC90: read-out: IC90
Method in brief: as §2

[15] = system: RKO (human colon adenocarcinoma cell); test: as above; assay type: cell-based; details: Homo sapiens; for IC50: read-out: IC50; for IC90: read-out: IC90
Method in brief: as §2

[16] = system: SK-OV-3 (ovarian cancer cell); test: as above; assay type: cell-based; details: Homo sapiens, SK-OV-3, 72 h; for IC50: read-out: IC50; for IC90: read-out: IC90
Method in brief: as §2

[17] = system: U87 MG (malignant glioma cell); test: as above; assay type: cell-based; details: Homo sapiens, U-87 MG, U87-MG, 72 h; for IC50: read-out: IC50; for IC90: read-out: IC90
Method in brief: as §2

Structure (SMILES)	IC50 [1]	IC90 [1]	IC50 [2]	IC90 [2]	IC50 [3]	IC90 [3]	IC50 [4]	IC90 [4]	IC50 [5]	IC90 [5]	IC50 [6]	IC90 [6]	IC50 (A549 (human lung cancer))	IC90 (A549 (human lung cancer))	IC50 [7]	IC90 [7]	IC50 [8]	IC90 [8]	IC50 [9]	IC90 [9]	also measured
Cc1c(CN(C)CCOC(=O)OC(C)C)oc2c1C(=O)C(=O)c1c-2ccc2c(C)cccc12 [BS-TA-63]	3.75 µg/mL (≈ 8.34 µM)	15.3 µg/mL (≈ 34.1 µM)	3 µg/mL (≈ 6.67 µM)	7.56 µg/mL (≈ 16.8 µM)	1.26 µg/mL (≈ 2.8 µM)	4.6 µg/mL (≈ 10.2 µM)	1.48 µg/mL (≈ 3.29 µM)	3.89 µg/mL (≈ 8.65 µM)	3.73 µg/mL (≈ 8.3 µM)	10.4 µg/mL (≈ 23.1 µM)	7.76 µg/mL (≈ 17.3 µM)	16 µg/mL (≈ 35.6 µM)	6.5 µg/mL (≈ 14.5 µM)	23.4 µg/mL (≈ 52.1 µM)	16 µg/mL (≈ 35.6 µM)	> 16 µg/mL	> 16 µg/mL	> 16 µg/mL	> 16 µg/mL	> 16 µg/mL	IC50 [10]: 8.77 µg/mL (≈ 19.5 µM); IC90 [10]: > 16 µg/mL; IC50 [11]: 15.7 µg/mL (≈ 34.8 µM); IC90 [11]: > 16 µg/mL; IC50 [12]: 3.39 µg/mL (≈ 7.54 µM); IC90 [12]: 22.4 µg/mL (≈ 49.9 µM); IC50 (MG63 (osteosarcoma)): 14.1 µg/mL (≈ 31.4 µM); IC90 (MG63 (osteosarcoma)): > 16 µg/mL; IC50 [13]: 14.9 µg/mL (≈ 33.1 µM); IC90 [13]: > 16 µg/mL; IC50 [14]: 4.92 µg/mL (≈ 10.9 µM); IC90 [14]: 20.9 µg/mL (≈ 46.4 µM); IC50 (PC-3 (prostate cancer)): 5.83 µg/mL (≈ 13 µM); IC90 (PC-3 (prostate cancer)): 18.9 µg/mL (≈ 42 µM); IC50 [15]: 1.86 µg/mL (≈ 4.14 µM); IC90 [15]: 17.6 µg/mL (≈ 39.2 µM); IC50 [16]: > 16 µg/mL; IC90 [16]: > 16 µg/mL; IC50 [17]: 15.8 µg/mL (≈ 35.2 µM); IC90 [17]: > 16 µg/mL
Cc1c(CNCC2CC2)oc2c1C(=O)C(=O)c1c-2ccc2c(C)cccc12 [BS-TA-B07]	2.9 µg/mL (≈ 8.07 µM)	7.5 µg/mL (≈ 20.9 µM)	3.11 µg/mL (≈ 8.65 µM)	9.52 µg/mL (≈ 26.5 µM)	3.22 µg/mL (≈ 8.96 µM)	6.38 µg/mL (≈ 17.8 µM)	1.07 µg/mL (≈ 2.98 µM)	3.86 µg/mL (≈ 10.7 µM)	1.35 µg/mL (≈ 3.76 µM)	3.74 µg/mL (≈ 10.4 µM)	3.46 µg/mL (≈ 9.63 µM)	10.2 µg/mL (≈ 28.3 µM)	5.98 µg/mL (≈ 16.6 µM)	21.9 µg/mL (≈ 61.1 µM)	5.23 µg/mL (≈ 14.6 µM)	14.3 µg/mL (≈ 39.9 µM)	9 µg/mL (≈ 25 µM)	> 16 µg/mL	9.16 µg/mL (≈ 25.5 µM)	19.7 µg/mL (≈ 54.8 µM)	IC50 [10]: 6.86 µg/mL (≈ 19.1 µM); IC90 [10]: 18.5 µg/mL (≈ 51.4 µM); IC50 [11]: 8.46 µg/mL (≈ 23.5 µM); IC90 [11]: > 16 µg/mL; IC50 [12]: 9.45 µg/mL (≈ 26.3 µM); IC90 [12]: > 16 µg/mL; IC50 (MG63 (osteosarcoma)): 8.14 µg/mL (≈ 22.6 µM); IC90 (MG63 (osteosarcoma)): > 16 µg/mL; IC50 [13]: 6.9 µg/mL (≈ 19.2 µM); IC90 [13]: 17.1 µg/mL (≈ 47.7 µM); IC50 [14]: 1.33 µg/mL (≈ 3.7 µM); IC90 [14]: 8.21 µg/mL (≈ 22.8 µM); IC50 (PC-3 (prostate cancer)): 7.05 µg/mL (≈ 19.6 µM); IC90 (PC-3 (prostate cancer)): 16 µg/mL (≈ 44.5 µM); IC50 [15]: 0.93 µg/mL (≈ 2.59 µM); IC90 [15]: 17 µg/mL (≈ 47.4 µM); IC50 [16]: > 16 µg/mL; IC90 [16]: > 16 µg/mL; IC50 [17]: 10.1 µg/mL (≈ 28 µM); IC90 [17]: 21.2 µg/mL (≈ 59 µM)
Cc1c(COC(=O)c2ccnc(Cl)c2)oc2c1C(=O)C(=O)c1c-2ccc2c(C)cccc12 [BS-TA-A01]	3.09 µg/mL (≈ 6.93 µM)	10.4 µg/mL (≈ 23.2 µM)	3 µg/mL (≈ 6.73 µM)	9.27 µg/mL (≈ 20.8 µM)	2.33 µg/mL (≈ 5.23 µM)	6.24 µg/mL (≈ 14 µM)	1.75 µg/mL (≈ 3.93 µM)	3.91 µg/mL (≈ 8.77 µM)	0.99 µg/mL (≈ 2.22 µM)	3.97 µg/mL (≈ 8.9 µM)	3.39 µg/mL (≈ 7.6 µM)	7.85 µg/mL (≈ 17.6 µM)	6.23 µg/mL (≈ 14 µM)	> 16 µg/mL	4.74 µg/mL (≈ 10.6 µM)	10.8 µg/mL (≈ 24.1 µM)	4.1 µg/mL (≈ 9.2 µM)	45 µg/mL (≈ 101 µM)	6.36 µg/mL (≈ 14.3 µM)	12.7 µg/mL (≈ 28.4 µM)	IC50 [10]: 4.5 µg/mL (≈ 10.1 µM); IC90 [10]: 14.9 µg/mL (≈ 33.3 µM); IC50 [11]: 4.82 µg/mL (≈ 10.8 µM); IC90 [11]: 16 µg/mL (≈ 35.9 µM); IC50 [12]: 3.96 µg/mL (≈ 8.88 µM); IC90 [12]: 19.1 µg/mL (≈ 42.9 µM); IC50 (MG63 (osteosarcoma)): 2.87 µg/mL (≈ 6.44 µM); IC90 (MG63 (osteosarcoma)): 14 µg/mL (≈ 31.4 µM); IC50 [13]: 5.38 µg/mL (≈ 12.1 µM); IC90 [13]: 16 µg/mL (≈ 35.9 µM); IC50 [14]: 3.31 µg/mL (≈ 7.42 µM); IC90 [14]: 12 µg/mL (≈ 27 µM); IC50 (PC-3 (prostate cancer)): 5.32 µg/mL (≈ 11.9 µM); IC90 (PC-3 (prostate cancer)): 12.6 µg/mL (≈ 28.2 µM); IC50 [15]: 1.46 µg/mL (≈ 3.27 µM); IC90 [15]: 13.4 µg/mL (≈ 30.1 µM); IC50 [16]: > 16 µg/mL; IC90 [16]: > 16 µg/mL; IC50 [17]: 5.71 µg/mL (≈ 12.8 µM); IC90 [17]: 14.2 µg/mL (≈ 31.7 µM)
